Test results from ChEMBL document CHEMBL2074326 (Proc Natl Acad Sci U S A, 2004).

Tests used:
[1] = target: T1, Solute carrier organic anion transporter family member 4C1 (Homo sapiens, UniProt Q6ZQN7); test: TP_TRANSPORTER: inhibition of Digoxin uptake in OATP4C1-expressing MDCK cells; format: functional, cell-based
T1 sequence (Q6ZQN7 whole entry): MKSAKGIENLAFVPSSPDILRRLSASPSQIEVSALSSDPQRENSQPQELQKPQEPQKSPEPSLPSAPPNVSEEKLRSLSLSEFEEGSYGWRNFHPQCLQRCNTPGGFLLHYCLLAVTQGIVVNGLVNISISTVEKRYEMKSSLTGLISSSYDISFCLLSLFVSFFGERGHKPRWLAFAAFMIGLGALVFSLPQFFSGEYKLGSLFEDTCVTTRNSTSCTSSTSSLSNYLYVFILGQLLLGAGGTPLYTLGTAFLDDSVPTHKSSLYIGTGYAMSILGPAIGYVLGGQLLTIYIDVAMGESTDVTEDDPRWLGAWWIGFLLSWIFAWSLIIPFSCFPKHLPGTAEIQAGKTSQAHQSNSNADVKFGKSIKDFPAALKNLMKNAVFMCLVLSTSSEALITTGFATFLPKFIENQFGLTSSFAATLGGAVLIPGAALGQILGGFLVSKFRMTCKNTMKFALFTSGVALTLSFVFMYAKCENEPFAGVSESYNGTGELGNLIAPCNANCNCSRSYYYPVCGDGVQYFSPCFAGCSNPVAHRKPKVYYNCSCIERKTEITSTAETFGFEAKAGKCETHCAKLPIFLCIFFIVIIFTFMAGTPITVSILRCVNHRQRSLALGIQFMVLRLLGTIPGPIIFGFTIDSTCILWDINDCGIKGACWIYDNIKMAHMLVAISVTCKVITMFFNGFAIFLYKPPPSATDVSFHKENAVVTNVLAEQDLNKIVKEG

[2] = target: T1, Solute carrier organic anion transporter family member 4C1; test: TP_TRANSPORTER: inhibition of Triiodothyronine uptake in OATP4C1-expressing MDCK cells; format: functional, cell-based
[3] = substrate: C[C@H]1O[C@@H](O[C@H]2[C@@H](O)C[C@H](O[C@H]3[C@@H](O)C[C@H](O[C@H]4CC[C@@]5(C)[C@H](CC[C@@H]6[C@@H]5C[C@@H](O)[C@]5(C)[C@@H](C7=CC(=O)OC7)CC[C@]65O)C4)O[C@@H]3C)O[C@@H]2C)C[C@H](O)[C@@H]1O; test: cells, lysate or membranes named
Description: (§1) TP_TRANSPORTER: cell accumulation in OATP4C1-expressing MDCK cells

[4] = substrate: N[C@@H](Cc1cc(I)c(Oc2ccc(O)c(I)c2)c(I)c1)C(=O)O; test: cells, lysate or membranes named
Description: as §1

For `C[C@H]1O[C@@H](O[C@H]2[C@@H](O)C[C@H](O[C@H]3[C@@H](O)C[C@H](O[C@H]4CC[C@@]5(C)[C@H](CC[C@@H]6[C@@H]5CC[C@]5(C)[C@@H](C7=CC(=O)OC7)CC[C@]65O)C4)O[C@@H]3C)O[C@@H]2C)C[C@H](O)[C@@H]1O` [DIGITOXIN], the IC50 [1] was 120 nM.

Work on `N[C@@H](Cc1cc(I)c(Oc2cc(I)c(O)c(I)c2)c(I)c1)C(=O)O` [LEVOTHYROXINE] yielded an IC50 [2] of 8000 nM.

In the case of `C[C@]12CC[C@H](O)C[C@H]1CC[C@@H]1[C@@H]2C[C@@H](O)[C@]2(C)[C@@H](C3=CC(=O)OC3)CC[C@]12O` [DIGOXIGENIN], the IC50 [1] is reported as 490 nM.

B1: Solute carrier organic anion transporter family member 4C1 (Homo sapiens) (protein)
chain: MKSAKGIENLAFVPSSPDILRRLSASPSQIEVSALSSDPQRENSQPQELQKPQEPQKSPEPSLPSAPPNVSEEKLRSLSLSEFEEGSYGWRNFHPQCLQRCNTPGGFLLHYCLLAVTQGIVVNGLVNISISTVEKRYEMKSSLTGLISSSYDISFCLLSLFVSFFGERGHKPRWLAFAAFMIGLGALVFSLPQFFSGEYKLGSLFEDTCVTTRNSTSCTSSTSSLSNYLYVFILGQLLLGAGGTPLYTLGTAFLDDSVPTHKSSLYIGTGYAMSILGPAIGYVLGGQLLTIYIDVAMGESTDVTEDDPRWLGAWWIGFLLSWIFAWSLIIPFSCFPKHLPGTAEIQAGKTSQAHQSNSNADVKFGKSIKDFPAALKNLMKNAVFMCLVLSTSSEALITTGFATFLPKFIENQFGLTSSFAATLGGAVLIPGAALGQILGGFLVSKFRMTCKNTMKFALFTSGVALTLSFVFMYAKCENEPFAGVSESYNGTGELGNLIAPCNANCNCSRSYYYPVCGDGVQYFSPCFAGCSNPVAHRKPKVYYNCSCIERKTEITSTAETFGFEAKAGKCETHCAKLPIFLCIFFIVIIFTFMAGTPITVSILRCVNHRQRSLALGIQFMVLRLLGTIPGPIIFGFTIDSTCILWDINDCGIKGACWIYDNIKMAHMLVAISVTCKVITMFFNGFAIFLYKPPPSATDVSFHKENAVVTNVLAEQDLNKIVKEG
In the case of B1, the Km [3] is reported as 7.8 µM and the Km [4] is reported as 5.9 µM.
